Test [1] deals with hD2R (Homo sapiens, UniProt P14416). Kind of test: biochemical. Type of test: binding. The settings on record: for inhibition at 10 µM: read-out: % inhibition at 10 μmol/L hD2.
Test [2] addresses hD3R (Homo sapiens, UniProt P35462). Description: biochemical. Type of test: binding. The note with it: for Ki: Ki hD3, three experiments, means ± SEM.
Setting [3] is: read-out: % inhibition at 10 μmol/L hD3, 10 μmol/L test compound.

We go through 33 compounds from paper PMC10638516 (Acta Pharmaceutica Sinica. B, 2023).

Each structure is given as a SMILES string. Read-outs that look alike come from different tables or passages of the source.

hD2R, sequence (P14416 whole entry): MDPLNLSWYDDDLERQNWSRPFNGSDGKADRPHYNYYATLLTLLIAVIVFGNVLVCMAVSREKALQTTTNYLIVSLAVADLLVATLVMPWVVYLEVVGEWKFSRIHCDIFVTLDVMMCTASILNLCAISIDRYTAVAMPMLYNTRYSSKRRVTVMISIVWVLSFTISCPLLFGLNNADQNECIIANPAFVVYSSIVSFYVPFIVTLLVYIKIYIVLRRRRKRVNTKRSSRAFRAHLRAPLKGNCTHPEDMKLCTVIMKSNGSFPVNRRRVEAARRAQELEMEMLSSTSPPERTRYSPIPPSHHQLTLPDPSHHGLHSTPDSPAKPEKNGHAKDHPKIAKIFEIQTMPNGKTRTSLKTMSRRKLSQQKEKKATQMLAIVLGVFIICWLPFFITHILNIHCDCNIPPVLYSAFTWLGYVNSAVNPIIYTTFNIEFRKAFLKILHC
hD3R, sequence (P35462 whole entry): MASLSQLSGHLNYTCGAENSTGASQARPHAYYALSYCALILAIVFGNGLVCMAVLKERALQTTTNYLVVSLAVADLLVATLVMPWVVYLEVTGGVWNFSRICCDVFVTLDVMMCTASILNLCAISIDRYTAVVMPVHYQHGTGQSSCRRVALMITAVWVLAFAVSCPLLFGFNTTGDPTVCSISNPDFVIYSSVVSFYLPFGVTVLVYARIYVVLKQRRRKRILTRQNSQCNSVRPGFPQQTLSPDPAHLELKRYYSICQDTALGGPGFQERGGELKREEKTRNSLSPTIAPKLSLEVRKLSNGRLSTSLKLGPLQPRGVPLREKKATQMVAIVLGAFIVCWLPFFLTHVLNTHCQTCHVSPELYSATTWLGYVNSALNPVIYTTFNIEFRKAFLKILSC

Usually Ki stands for a measure of affinity in units of concentration, obtained from inhibition or displacement. A high value points to lower affinity. Regarding `CC(C)n1c2ccccc2c2cc(CNCCCn3ccnc3)ccc21` [3c], the values for the Ki in test [1] and in test [2] were more than 10000 nM and 665 ± 13.5 nM, respectively. Further, the inhibition at 10 µM was found to be 1.7 ± 9.2% in test [1] and 83.8 ± 10.2% in test [2] (setting [3]).

For `CCn1c2ccccc2c2cc(CNCCCCn3ccnc3)ccc21` [17a], the Ki in test [1] was more than 10000 nM; in test [2], 994 ± 36.6 nM. Moreover, in test [2] (setting [3]), the inhibition at 10 µM worked out at 75.6 ± 3.5%.

For `CCn1c2ccccc2c2cc(CNCCCn3cnc4ccccc43)ccc21` [17d], the Ki in test [1] is more than 10000 nM; in test [2] it was 1100 ± 115 nM. Further, the inhibition at 10 µM in test [1] is 71.8 ± 3.6%; in test [2] (read-out: % inhibition at 10 μmol/L hD3), 75 ± 14.5%.

Turning to `CCn1c2ccccc2c2cc(CNCCCn3cnc4cncnc43)ccc21` [17e], the inhibition at 10 µM in test [1] came to 10.6 ± 7.4%.

For `CCn1c2ccccc2c2cc(CNCCCn3cnc4c(Cl)ncnc43)ccc21` [17f], the inhibition at 10 µM in test [1] was determined as 12.8 ± 7.7%.

With `CCn1c2ccccc2c2cc(CNCCCNC(=O)N(C)C)ccc21` [22a], the inhibition at 10 µM in test [2] (setting [3]) is 42.1 ± 2.2%.

Turning to `CCn1c2ccccc2c2cc(CNCCCNC(=O)c3cc4ccccc4[nH]3)ccc21` [22b], the inhibition at 10 µM was 8.1 ± 3.9% in test [1] and 21.3 ± 8.5% in test [2] (setting [3]).

`CCn1c2ccccc2c2cc(CNCCCNC(=O)c3nc4ccccc4[nH]3)ccc21` [22c]: the inhibition at 10 µM came out at 22.4 ± 5.7% in test [1] and 32.7 ± 11.4% in test [2] (setting [3]).

For `CCn1c2ccccc2c2cc(CNCCCCNC(=O)c3cc4ccccc4[nH]3)ccc21` [23a], the Ki in test [1] is more than 10000 nM; in test [2] it was 62.6 ± 8 nM. For the same compound, the results for the inhibition at 10 µM in test [1] and in test [2] (setting [3]) were 30 ± 14.1% and 87 ± 2.5%, respectively.

In the case of `CCn1c2ccccc2c2cc(CNCCCCNC(=O)c3nc4ccccc4[nH]3)ccc21` [23b], the figures for the Ki in test [1] and in test [2] were more than 10000 nM and 578 ± 85 nM, respectively. For the same compound, the inhibition at 10 µM in test [2] (setting [3]) was 86.7 ± 1.9%.

In the case of `CCn1c2ccccc2c2cc(CNCCCCNC(=O)c3cc4ccccn4n3)ccc21` [23c], the Ki was more than 10000 nM in test [1] and 45.7 ± 2.2 nM in test [2]. In addition, the inhibition at 10 µM in test [2] (setting [3]) worked out at 98.4 ± 2%.

Consider `CCn1c2ccccc2c2cc(CNCCCCNC(=O)c3ccc4[nH]cnc4c3)ccc21` [23d], for which the Ki is more than 10000 nM in test [1] and 125 ± 17.6 nM in test [2]. Moreover, the figures for the inhibition at 10 µM in test [1] and in test [2] (setting [3]) were 2.7 ± 4.3% and 98.5 ± 2.3%, respectively.

For `CCn1c2ccccc2c2cc(CNCCCCNC(=O)c3ccc4[nH]c(=O)[nH]c4c3)ccc21` [23e], the values for the Ki in test [1] and in test [2] were more than 10000 nM and 99.3 ± 31.9 nM, respectively. For the same compound, the inhibition at 10 µM in test [1] came out at 1.9 ± 10.7%; in test [2] (setting [3]), 99.2 ± 0.5%.

Take `CCn1c2ccccc2c2cc(CNCCCCNC(=O)c3ccc4[nH]c(=O)oc4c3)ccc21` [23f]: the Ki in test [1] was more than 10000 nM; in test [2] it was 95.1 ± 8.9 nM. Moreover, the inhibition at 10 µM in test [1] was determined as 5.5 ± 21.5%; in test [2] (setting [3]) it was 97.6 ± 0.3%.

Turning to `CCn1c2ccccc2c2cc(CNCCCCNC(=O)c3ccc(-c4ccccc4)cc3)ccc21` [23g], the Ki is more than 10000 nM in test [1] and 206 ± 2.9 nM in test [2]. For the same compound, the inhibition at 10 µM in test [2] (setting [3]) stood at 102 ± 1.2%.

In the case of `CCn1c2ccccc2c2cc(CNCCCCNC(=O)c3ccc(-c4ccc(C(C)=O)cc4)cc3)ccc21` [23h], the Ki in test [1] was more than 10000 nM; in test [2], 24.2 ± 4.4 nM. The inhibition at 10 µM came out at 5.2 ± 7.6% in test [1] and 105 ± 1.5% in test [2] (setting [3]).

As for `CCn1c2ccccc2c2cc(CNCCCCNC(=O)c3ccc(-c4ccccn4)cc3)ccc21` [23i], in test [1], the Ki is more than 10000 nM and the inhibition at 10 µM was found to be 6.5 ± 2.3%. Further, in test [2], the “improvement of D3R binding affinity versus the phenyl group (23g)” value is reported as “approximately 10 fold” and the affinity corresponds to a Ki of 21.3 ± 4.3 nM. Also, in test [2] (setting [3]), the inhibition at 10 µM came to 101 ± 0.8%.

Turning to `CCn1c2ccccc2c2cc(CNCCCCNC(=O)c3ccc4[nH]c5ccccc5c4c3)ccc21` [23k], the figures for the Ki in test [1] and in test [2] were more than 10000 nM and 145 ± 11.9 nM, respectively. Further, the values for the inhibition at 10 µM in test [1] and in test [2] (setting [3]) were 10.6 ± 3.3% and 98.1 ± 0.8%, respectively.

Regarding `CCn1c2ccccc2c2cc(CNCCCCNC(=O)c3cnc4ccccc4c3)ccc21` [23l], the figures for the Ki in test [1] and in test [2] were more than 10000 nM and 85.7 ± 2.9 nM, respectively. Also, the inhibition at 10 µM in test [1] is 9.6 ± 0.1%; in test [2] (setting [3]) it was 100 ± 1.3%.

In the case of `CCn1c2ccccc2c2cc(CNCCCCNC(=O)c3ccnc4ccccc34)ccc21` [23m], in test [2] (setting [3]), the inhibition at 10 µM amounted to 63.1 ± 0.2%.

For `CCN(CCCCNC(=O)c1cc2ccccc2[nH]1)Cc1ccc2c(c1)c1ccccc1n2CC` [31a], the Ki in test [1] came to 333 ± 3.6 nM; in test [2], 134 ± 9.6 nM. The inhibition at 10 µM in test [1] is 88.1 ± 1.5%; in test [2] (setting [3]) it was 96.2 ± 0.2%.

Turning to `CCN(CCCCNC(=O)c1ccc(-c2cccnc2)cc1)Cc1ccc2c(c1)c1ccccc1n2CC` [31b], the Ki was more than 10000 nM in test [1] and 422 ± 18.3 nM in test [2]. For the same compound, the results for the inhibition at 10 µM in test [1] and in test [2] (setting [3]) were 36.9 ± 2.1% and 78.5 ± 0.3%, respectively.

On to `CCCN(CCCCNC(=O)c1cc2ccccc2[nH]1)Cc1ccc2c(c1)c1ccccc1n2CC` [31c], for which the figures for the Ki in test [1] and in test [2] were 301 ± 11.9 nM and 448 ± 26.1 nM, respectively. For the same compound, the inhibition at 10 µM was 89.8 ± 2.9% in test [1] and 98.6 ± 0.6% in test [2] (setting [3]).

As for `CCCN(CCCCNC(=O)c1ccc(-c2cccnc2)cc1)Cc1ccc2c(c1)c1ccccc1n2CC` [31d], the Ki in test [1] was more than 10000 nM; in test [2], 994 ± 45.3 nM. The inhibition at 10 µM came out at 26.8 ± 0.9% in test [1] and 81.3 ± 0.6% in test [2] (setting [3]).

As to `CCCN(CCCCNC(=O)c1cc2ccccn2n1)Cc1ccc2c(c1)c1ccccc1n2CC` [31e], the Ki in test [1] was more than 10000 nM; in test [2], 478 ± 29.4 nM. In addition, the values for the inhibition at 10 µM in test [1] and in test [2] (setting [3]) were 18.6 ± 2.5% and 74.8 ± 1.5%, respectively.

On to `Cn1c2c(c3ccccc31)CN(CCCCNC(=O)c1cn3nc(Cl)ccc3n1)CC2` [36c], for which the inhibition at 10 µM in test [1] turned out to be 21.1 ± 9%; in test [2] (setting [3]) it was 66.3 ± 9.1%.

As for `Cn1c2c(c3ccccc31)CN(CCCCNC(=O)c1cnc3ccccc3c1)CC2` [36d], the inhibition at 10 µM was 15.6 ± 12.9% in test [1] and 42.5 ± 6.8% in test [2] (setting [3]).

On to `Cn1c2c(c3ccccc31)CN(CCCCNC(=O)c1ccnc3ccccc13)CC2` [36e], for which the inhibition at 10 µM in test [1] is -2 ± 17.4%; in test [2] (setting [3]) it was 68.1 ± 1.9%.

Take `Cn1c2c(c3ccccc31)CN(CCCCNC(=O)c1ccc(-c3cccnc3)cc1)CC2` [36g]: the Ki in test [1] was more than 10000 nM; in test [2] it was 29 ± 3.3 nM. In addition, the inhibition at 10 µM in test [1] came to 29.2 ± 5.8%; in test [2] (setting [3]), 83.8 ± 12.7%.

As for `Cn1c2c(c3ccccc31)CN(CCCCNC(=O)c1ccc3[nH]c4ccccc4c3c1)CC2` [36h], the inhibition at 10 µM in test [1] was 74.4 ± 3.3%; in test [2] (setting [3]) it was 95.5 ± 0.7%. Further, in test [2], the affinity corresponds to a Ki of 19.6 ± 7.3 nM.

For `Cn1c2c(c3ccccc31)CN(CCCCNC(=O)c1ccc3[nH]c(=O)[nH]c3c1)CC2` [36i], the Ki in test [1] was more than 10000 nM; in test [2] it was 3.7 ± 0.6 nM. In addition, the values for the inhibition at 10 µM in test [1] and in test [2] (setting [3]) were 38.9 ± 3.8% and 87.5 ± 6.1%, respectively.

Regarding `Cn1c2c(c3ccccc31)CN(CCCCNC(=O)c1ccc3[nH]cnc3c1)CC2` [36j], the Ki was more than 10000 nM in test [1] and 14.2 ± 0.7 nM in test [2]. For the same compound, the values for the inhibition at 10 µM in test [1] and in test [2] (setting [3]) were 27.7 ± 1.4% and 74.4 ± 8.2%, respectively.

As for `CCn1c2c(c3ccccc31)CN(CCCCNC(=O)c1cc3ccccc3[nH]1)CC2` [36k], the values for the Ki in test [1] and in test [2] were more than 10000 nM and 15.5 ± 1.8 nM, respectively. The inhibition at 10 µM was 13.2 ± 7.3% in test [1] and 106 ± 2.2% in test [2] (setting [3]).
